Results taken from ChEMBL document CHEMBL1201861, “Genomics of Drug Sensitity in Cancer screening data, Wellcome Trust Sanger Institute”.

tested on: D-502MG; experiment: cells; type: functional, cell-based, Homo sapiens; details: Homo sapiens, D-502MG
Description: SANGER: Inhibition of human D-502MG cell growth in a cell viability assay.

Compound	IC50 [nM]
C#Cc1cccc(Nc2ncnc3cc(OCCOC)c(OCCOC)cc23)c1 [ERLOTINIB]	> 2000

tested on: DEL; experiment: cells; type: functional, cell-based, Homo sapiens; details: Homo sapiens, DEL;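 note: growth inhibition of the human DEL cell line, read out with a cell viability assay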
Description: SANGER: Inhibition of human DEL cell growth in a cell viability assay.

Compound	IC50 [nM]
C#Cc1cccc(Nc2ncnc3cc(OCCOC)c(OCCOC)cc23)c1 [ERLOTINIB]	> 2000

tested on: DMS-114; experiment: cells; type: functional, cell-based, Homo sapiens; details: Homo sapiens, DMS-114

Compound	IC50 [nM]
C#Cc1cccc(Nc2ncnc3cc(OCCOC)c(OCCOC)cc23)c1 [ERLOTINIB]	> 2000

tested on: DOHH-2; experiment: cells; type: functional, cell-based, Homo sapiens; details: Homo sapiens, DOHH-2;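 note: growth inhibition of human DOHH-2 cells, read out with a cell viability assay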
Description: SANGER: Inhibition of human DOHH-2 cell growth in a cell viability assay.

Compound	IC50 [nM]
C#Cc1cccc(Nc2ncnc3cc(OCCOC)c(OCCOC)cc23)c1 [ERLOTINIB]	> 2000

tested on: EM-2; experiment: cells; type: functional, cell-based, Homo sapiens; details: Homo sapiens, EM-2;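 note: growth inhibition of EM-2 cells, read out with a cell viability assay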
Description: SANGER: Inhibition of human EM-2 cell growth in a cell viability assay.

Compound	IC50 [nM]
C#Cc1cccc(Nc2ncnc3cc(OCCOC)c(OCCOC)cc23)c1 [ERLOTINIB]	> 2000

tested on: ES3; experiment: cells; type: functional, cell-based, Homo sapiens; details: Homo sapiens, ES3;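 note: growth inhibition of ES3 cells, read out with a cell viability assay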
Description: SANGER: Inhibition of human ES3 cell growth in a cell viability assay.

Compound	IC50 [nM]
C#Cc1cccc(Nc2ncnc3cc(OCCOC)c(OCCOC)cc23)c1 [ERLOTINIB]	> 2000

tested on: ETK-1; experiment: cells; type: functional, cell-based, Homo sapiens; details: Homo sapiens, ETK-1;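 note: growth inhibition of human ETK-1 cells, read out with a cell viability assay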
Description: SANGER: Inhibition of human ETK-1 cell growth in a cell viability assay.

Compound	IC50 [nM]
C#Cc1cccc(Nc2ncnc3cc(OCCOC)c(OCCOC)cc23)c1 [ERLOTINIB]	> 2000

tested on: EW-11; experiment: cells; type: functional, cell-based, Homo sapiens; details: Homo sapiens, EW-11;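 note: growth inhibition of human EW-11 cells, measured with a cell viability assay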
Description: SANGER: Inhibition of human EW-11 cell growth in a cell viability assay.

Compound	IC50 [nM]
C#Cc1cccc(Nc2ncnc3cc(OCCOC)c(OCCOC)cc23)c1 [ERLOTINIB]	> 2000

tested on: EW-13; experiment: cells; type: functional, cell-based, Homo sapiens; details: Homo sapiens, EW-13;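 note: growth inhibition of EW-13 cells, read out with a cell viability assay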
Description: SANGER: Inhibition of human EW-13 cell growth in a cell viability assay.

Compound	IC50 [nM]
C#Cc1cccc(Nc2ncnc3cc(OCCOC)c(OCCOC)cc23)c1 [ERLOTINIB]	> 2000

tested on: EW-3; experiment: cells; type: functional, cell-based, Homo sapiens; details: Homo sapiens, EW-3;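 note: cell viability assay read-out, IC50 reflects inhibition of growth of the EW-3 cells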
Description: SANGER: Inhibition of human EW-3 cell growth in a cell viability assay.

Compound	IC50 [nM]
C#Cc1cccc(Nc2ncnc3cc(OCCOC)c(OCCOC)cc23)c1 [ERLOTINIB]	> 2000

tested on: HCC 2998; experiment: cells; type: functional, cell-based, Homo sapiens; details: Homo sapiens, HCC 2998;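 note: growth inhibition of human HCC2998 cells, measured with a cell viability read-out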
Description: SANGER: Inhibition of human HCC2998 cell growth in a cell viability assay.

Compound	IC50 [nM]
C#Cc1cccc(Nc2ncnc3cc(OCCOC)c(OCCOC)cc23)c1 [ERLOTINIB]	> 2000

tested on: HCE-T; experiment: cells; type: functional, cell-based, Homo sapiens; details: Homo sapiens, HCE-T;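 note: cell viability assay read-out, reporting inhibition of HCE-T cell growth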
Description: SANGER: Inhibition of human HCE-T cell growth in a cell viability assay.

Compound	IC50 [nM]
C#Cc1cccc(Nc2ncnc3cc(OCCOC)c(OCCOC)cc23)c1 [ERLOTINIB]	> 2000

tested on: HH; experiment: cells; type: functional, cell-based, Homo sapiens; details: Homo sapiens, HH
Description: SANGER: Inhibition of human HH cell growth in a cell viability assay.

Compound	IC50 [nM]
C#Cc1cccc(Nc2ncnc3cc(OCCOC)c(OCCOC)cc23)c1 [ERLOTINIB]	> 2000

tested on: IST-SL1; experiment: cells; type: functional, cell-based, Homo sapiens; details: Homo sapiens, IST-SL1;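 note: growth inhibition of human IST-SL1 cells, read out with a cell viability assay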
Description: SANGER: Inhibition of human IST-SL1 cell growth in a cell viability assay.

Compound	IC50 [nM]
C#Cc1cccc(Nc2ncnc3cc(OCCOC)c(OCCOC)cc23)c1 [ERLOTINIB]	> 2000

tested on: JVM-2; experiment: cells; type: functional, cell-based, Homo sapiens; details: Homo sapiens, JVM-2;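 note: growth inhibition of JVM-2 cells determined by a cell viability assay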
Description: SANGER: Inhibition of human JVM-2 cell growth in a cell viability assay.

Compound	IC50 [nM]
C#Cc1cccc(Nc2ncnc3cc(OCCOC)c(OCCOC)cc23)c1 [ERLOTINIB]	> 2000

tested on: JVM-3; experiment: cells; type: functional, cell-based, Homo sapiens; details: Homo sapiens, JVM-3;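 note: growth inhibition of human JVM-3 cells, read out with a cell viability assay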
Description: SANGER: Inhibition of human JVM-3 cell growth in a cell viability assay.

Compound	IC50 [nM]
C#Cc1cccc(Nc2ncnc3cc(OCCOC)c(OCCOC)cc23)c1 [ERLOTINIB]	> 2000

tested on: K5; experiment: cells; type: functional, cell-based, Homo sapiens; details: Homo sapiens, K5
Description: SANGER: Inhibition of human K5 cell growth in a cell viability assay.

Compound	IC50 [nM]
C#Cc1cccc(Nc2ncnc3cc(OCCOC)c(OCCOC)cc23)c1 [ERLOTINIB]	> 2000

tested on: KALS-1; experiment: cells; type: functional, cell-based, Homo sapiens; details: Homo sapiens, KALS-1;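 note: growth inhibition of KALS-1 cells, determined with a cell viability assay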
Description: SANGER: Inhibition of human KALS-1 cell growth in a cell viability assay.

Compound	IC50 [nM]
C#Cc1cccc(Nc2ncnc3cc(OCCOC)c(OCCOC)cc23)c1 [ERLOTINIB]	> 2000

tested on: KGN; experiment: cells; type: functional, cell-based, Homo sapiens; details: Homo sapiens, KGN;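 note: growth inhibition of KGN cells, read out with a cell viability assay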
Description: SANGER: Inhibition of human KGN cell growth in a cell viability assay.

Compound	IC50 [nM]
C#Cc1cccc(Nc2ncnc3cc(OCCOC)c(OCCOC)cc23)c1 [ERLOTINIB]	> 2000

tested on: KNS-42; experiment: cells; type: functional, cell-based, Homo sapiens; details: Homo sapiens, KNS-42;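 note: growth inhibition of KNS-42 cells, read out with a cell viability assay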
Description: SANGER: Inhibition of human KNS-42 cell growth in a cell viability assay.

Compound	IC50 [nM]
C#Cc1cccc(Nc2ncnc3cc(OCCOC)c(OCCOC)cc23)c1 [ERLOTINIB]	> 2000

tested on: LAMA-84; experiment: cells; type: functional, cell-based, Homo sapiens; details: Homo sapiens, LAMA-84;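 note: growth inhibition of LAMA-84 cells, read out with a cell viability assay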
Description: SANGER: Inhibition of human LAMA-84 cell growth in a cell viability assay.

Compound	IC50 [nM]
C#Cc1cccc(Nc2ncnc3cc(OCCOC)c(OCCOC)cc23)c1 [ERLOTINIB]	> 2000

tested on: LB2518-MEL; experiment: cells; type: functional, cell-based, Homo sapiens; details: Homo sapiens, LB2518-MEL;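 note: growth inhibition of human LB2518-MEL cells, measured with a cell viability assay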
Description: SANGER: Inhibition of human LB2518-MEL cell growth in a cell viability assay.

Compound	IC50 [nM]
C#Cc1cccc(Nc2ncnc3cc(OCCOC)c(OCCOC)cc23)c1 [ERLOTINIB]	> 2000

tested on: LB771-HNC; experiment: cells; type: functional, cell-based, Homo sapiens; details: Homo sapiens, LB771-HNC;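 note: growth inhibition of LB771-HNC human cells, read out with a cell viability assay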
Description: SANGER: Inhibition of human LB771-HNC cell growth in a cell viability assay.

Compound	IC50 [nM]
C#Cc1cccc(Nc2ncnc3cc(OCCOC)c(OCCOC)cc23)c1 [ERLOTINIB]	> 2000

tested on: LB831-BLC; experiment: cells; type: functional, cell-based, Homo sapiens; details: Homo sapiens, LB831-BLC;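 note: growth inhibition of LB831-BLC cells, read out with a cell viability assay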
Description: SANGER: Inhibition of human LB831-BLC cell growth in a cell viability assay.

Compound	IC50 [nM]
C#Cc1cccc(Nc2ncnc3cc(OCCOC)c(OCCOC)cc23)c1 [ERLOTINIB]	> 2000

tested on: LS-411N; experiment: cells; type: functional, cell-based, Homo sapiens; details: Homo sapiens, LS-411N

Compound	IC50 [nM]
C#Cc1cccc(Nc2ncnc3cc(OCCOC)c(OCCOC)cc23)c1 [ERLOTINIB]	> 2000

tested on: LS-513; experiment: cells; type: functional, cell-based, Homo sapiens; details: Homo sapiens, LS-513
Description: SANGER: Inhibition of human LS-513 cell growth in a cell viability assay.

Compound	IC50 [nM]
C#Cc1cccc(Nc2ncnc3cc(OCCOC)c(OCCOC)cc23)c1 [ERLOTINIB]	> 2000

tested on: MFM-223; experiment: cells; type: functional, cell-based, Homo sapiens; details: Homo sapiens, MFM-223
Description: SANGER: Inhibition of human MFM-223 cell growth in a cell viability assay.

Compound	IC50 [nM]
C#Cc1cccc(Nc2ncnc3cc(OCCOC)c(OCCOC)cc23)c1 [ERLOTINIB]	> 2000

tested on: MN-60; experiment: cells; type: functional, cell-based, Homo sapiens; details: Homo sapiens, MN-60;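 note: growth inhibition of the MN-60 cell line, determined with a cell viability assay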
Description: SANGER: Inhibition of human MN-60 cell growth in a cell viability assay.

Compound	IC50 [nM]
C#Cc1cccc(Nc2ncnc3cc(OCCOC)c(OCCOC)cc23)c1 [ERLOTINIB]	> 2000

tested on: MS-1; experiment: cells; type: functional, cell-based, Homo sapiens; details: Homo sapiens, MS-1
Description: SANGER: Inhibition of human MS-1 cell growth in a cell viability assay.

Compound	IC50 [nM]
C#Cc1cccc(Nc2ncnc3cc(OCCOC)c(OCCOC)cc23)c1 [ERLOTINIB]	> 2000

tested on: NB17; experiment: cells; type: functional, cell-based, Homo sapiens; details: Homo sapiens, NB17;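 note: growth inhibition of NB17 cells, read out with a cell viability assay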
Description: SANGER: Inhibition of human NB17 cell growth in a cell viability assay.

Compound	IC50 [nM]
C#Cc1cccc(Nc2ncnc3cc(OCCOC)c(OCCOC)cc23)c1 [ERLOTINIB]	> 2000

tested on: NCI-H1355; experiment: cells; type: functional, cell-based, Homo sapiens; details: Homo sapiens, NCI-H1355;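 note: growth inhibition of human NCI-H1355 cells, read out by a cell viability assay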
Description: SANGER: Inhibition of human NCI-H1355 cell growth in a cell viability assay.

Compound	IC50 [nM]
C#Cc1cccc(Nc2ncnc3cc(OCCOC)c(OCCOC)cc23)c1 [ERLOTINIB]	> 2000

tested on: NCI-H526; experiment: cells; type: functional, cell-based, Homo sapiens; details: Homo sapiens, NCI-H526;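 note: growth inhibition of the human NCI-H526 cell line, measured by a cell viability assay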
Description: SANGER: Inhibition of human NCI-H526 cell growth in a cell viability assay.

Compound	IC50 [nM]
C#Cc1cccc(Nc2ncnc3cc(OCCOC)c(OCCOC)cc23)c1 [ERLOTINIB]	> 2000

tested on: NMC-G1; experiment: cells; type: functional, cell-based, Homo sapiens; details: Homo sapiens, NMC-G1;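 note: growth inhibition of the NMC-G1 cell line, measured with a cell viability read-out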
Description: SANGER: Inhibition of human NMC-G1 cell growth in a cell viability assay.

Compound	IC50 [nM]
C#Cc1cccc(Nc2ncnc3cc(OCCOC)c(OCCOC)cc23)c1 [ERLOTINIB]	> 2000

tested on: OMC-1; experiment: cells; type: functional, cell-based, Homo sapiens; details: Homo sapiens, OMC-1;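 note: growth inhibition of the OMC-1 cell line, measured by a cell viability assay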
Description: SANGER: Inhibition of human OMC-1 cell growth in a cell viability assay.

Compound	IC50 [nM]
C#Cc1cccc(Nc2ncnc3cc(OCCOC)c(OCCOC)cc23)c1 [ERLOTINIB]	> 2000

tested on: P30-OHK; experiment: cells; type: functional, cell-based, Homo sapiens; details: Homo sapiens, P30-OHK;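 note: growth inhibition of the P30-OHK cell line, read out with a cell viability assay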
Description: SANGER: Inhibition of human P30-OHK cell growth in a cell viability assay.

Compound	IC50 [nM]
C#Cc1cccc(Nc2ncnc3cc(OCCOC)c(OCCOC)cc23)c1 [ERLOTINIB]	> 2000

tested on: RH-1; experiment: cells; type: functional, cell-based, Homo sapiens; details: Homo sapiens, RH-1;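 note: growth inhibition of human RH-1 cells, read out with a cell viability assay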
Description: SANGER: Inhibition of human RH-1 cell growth in a cell viability assay.

Compound	IC50 [nM]
C#Cc1cccc(Nc2ncnc3cc(OCCOC)c(OCCOC)cc23)c1 [ERLOTINIB]	> 2000

tested on: SH-4; experiment: cells; type: functional, cell-based, Homo sapiens; details: Homo sapiens, SH-4;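 note: growth inhibition of SH-4 cells, read out with a cell viability assay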
Description: SANGER: Inhibition of human SH-4 cell growth in a cell viability assay.

Compound	IC50 [nM]
C#Cc1cccc(Nc2ncnc3cc(OCCOC)c(OCCOC)cc23)c1 [ERLOTINIB]	> 2000

tested on: SK-N-DZ; experiment: cells; type: functional, cell-based, Homo sapiens; details: Homo sapiens, SK-N-DZ;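 note: growth inhibition of the cancer cell line, read out through a viability assay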
Description: SANGER: Inhibition of human SK-N-DZ cell growth in a cell viability assay.

Compound	IC50 [nM]
C#Cc1cccc(Nc2ncnc3cc(OCCOC)c(OCCOC)cc23)c1 [ERLOTINIB]	> 2000

tested on: SK-NEP-1; experiment: cells; type: functional, cell-based, Homo sapiens; details: Homo sapiens, SK-NEP-1;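 note: growth inhibition of human SK-NEP-1 cells, read out by a cell viability assay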
Description: SANGER: Inhibition of human SK-NEP-1 cell growth in a cell viability assay.

Compound	IC50 [nM]
C#Cc1cccc(Nc2ncnc3cc(OCCOC)c(OCCOC)cc23)c1 [ERLOTINIB]	> 2000

tested on: ALL-PO; experiment: cells; type: functional, cell-based, Homo sapiens; details: Homo sapiens, ALL-PO;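 note: growth inhibition of ALL-PO cells, read out by a cell viability assay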
Description: SANGER: Inhibition of human ALL-PO cell growth in a cell viability assay.

Compound	IC50 [nM]
C#Cc1cccc(Nc2ncnc3cc(OCCOC)c(OCCOC)cc23)c1 [ERLOTINIB]	> 2000

tested on: ATN-1; experiment: cells; type: functional, cell-based, Homo sapiens; details: Homo sapiens, ATN-1;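 note: growth inhibition of human ATN-1 cells, read out with a cell viability assay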
Description: SANGER: Inhibition of human ATN-1 cell growth in a cell viability assay.

Compound	IC50 [nM]
C#Cc1cccc(Nc2ncnc3cc(OCCOC)c(OCCOC)cc23)c1 [ERLOTINIB]	> 2000

tested on: BV-173; experiment: cells; type: functional, cell-based, Homo sapiens; details: Homo sapiens, BV-173
Description: SANGER: Inhibition of human BV-173 cell growth in a cell viability assay.

Compound	IC50 [nM]
C#Cc1cccc(Nc2ncnc3cc(OCCOC)c(OCCOC)cc23)c1 [ERLOTINIB]	> 2000

tested on: C2BBe1; experiment: cells; type: functional, cell-based, Homo sapiens; details: Homo sapiens, C2BBe1;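 note: growth inhibition of C2BBe1 cells, read out through a viability assay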
Description: SANGER: Inhibition of human C2BBe1 cell growth in a cell viability assay.

Compound	IC50 [nM]
C#Cc1cccc(Nc2ncnc3cc(OCCOC)c(OCCOC)cc23)c1 [ERLOTINIB]	> 2000

tested on: CAS-1; experiment: cells; type: functional, cell-based, Homo sapiens; details: Homo sapiens, CAS-1;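 note: growth inhibition of CAS-1 cells, measured with a cell viability assay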
Description: SANGER: Inhibition of human CAS-1 cell growth in a cell viability assay.

Compound	IC50 [nM]
C#Cc1cccc(Nc2ncnc3cc(OCCOC)c(OCCOC)cc23)c1 [ERLOTINIB]	> 2000
